Data on two molecules can be found in US20200038412A1, “METHODS OF TREATING ALZHEIMER'S DISEASE USING AMINOSTEROL COMPOSITIONS” (Enterin, Inc., priority 2018, published 2020).

Counter-ions that a name gives are not always drawn.

The conditions of data set [1]: single and repeat intravenous administration, alone or in combination with other agents; cited from earlier work.
Data set [2] in a line: Pharmacokinetics of orally administered squalamine (ENT-01) in Stage 1. The format is in vivo, human. To be noted: oral dosing. Here is the method:
PK data were collected on the 10 patients enrolled in Stage 1 and 10 patients enrolled in Stage 2 to determine the extent of systemic absorption. In Stage 1, PK data were obtained at each visit, pre-medication, at 1, 2, 4, 8 and 24 hours (Table 10). In Stage 2, PK was measured on days 1 and 6 of the randomization period pre-medication, at 1, 2, 4 and 8 hours (Table 11).
The mean Cmax, Tmax and T1/2 and AUC of the squalamine ion following squalamine (ENT-01) oral dosing for Stage 1 patients. The PK analyses are only approximate, as the lower limit of the validated concentration range was 10 ng/ml; most of the measured concentrations fell below that value. The mean Cmax, Tmax and T1/2 and AUC of the squalamine ion following squalamine (ENT-01) oral dosing for Stage 2 patients. The PK analyses are only approximate, as the lower limit of the validated concentration range was 0.5 ng/ml.

Data set [3] has as its system patients with PD and constipation. The experiment in a line: Phase 2 trial Stage 2: bowel function under daily oral dosing (escalation, fixed dose, wash-out). The settings on record: patients with baseline ≥1 CSBM/week. The format is in vivo, human. The method, then: Following successful screening, all subjects underwent a 14-day run-in period where the degree of constipation was assessed through a validated daily log (Zinsmeister et al. 2013) establishing baseline CSBMs/week. Subjects with an average of <3 CSBMs/week proceeded to dosing.
In Stage 2, 34 patients were evaluated.
The primary efficacy outcome variable was whether or not a subject was a “success” or “failure”. This is an endpoint based on subject diary entries for the “fixed dose” period prior to the endpoint assessment defined as average complete stool frequency increase by 1 or more over baseline, or 3 or more complete spontaneous stools/week. The subject was deemed a “success” if s/he met one or more of the criteria listed above, otherwise the subject was deemed a “failure”. The primary analysis was based on all subjects with a baseline assessment and an assessment at the end of the “fixed-dose” period and was a comparison of the proportion of successes with 0.10 (the null hypothesis corresponding to no treatment effect).

The next data set has as its system mouse models of PD. To be noted: cited from earlier work.
The conditions of data set [4]: systemic administration, mice; into the duodenum through the biliary tract; cited from earlier work.
Data set [5] concerns IPANs (intrinsic primary afferent neuron). To be noted: perfusion through lumen of isolated bowel segment; cited from earlier work.
For the next data set, the system named is C. elegans model of PD. To be noted: C. elegans model; cited from earlier work.

For the molecule `CC(C)[C@@H](CC[C@@H](C)[C@H]1CC[C@H]2[C@@H]3[C@H](O)C[C@H]4C[C@@H](NCCCNCCCCN)CC[C@]4(C)[C@H]3CC[C@]12C)OS(=O)(=O)O` [squalamine dilactate salt], the “well tolerated intravenous dose” value in data set [1] is recorded as “at least 300 mg/m^2”.

Take `CC(C)[C@@H](CC[C@@H](C)[C@H]1CC[C@H]2[C@@H]3[C@H](O)C[C@H]4C[C@@H](NCCCNCCCCN)CC[C@]4(C)[C@H]3CC[C@]12C)OS(=O)(=O)O` [squalamine]: the systemic absorption entry in data set [2] is listed as “not significantly absorbed into the systemic circulation”. Further, in data set [3], the “mean dose required for a bowel response (prokinetic dose)” value is on record as 120 mg. The gastro-intestinal motility result in the data set on mouse models of PD (orally administered, mice with constipation due to overexpression of human αS (West et al)) is reported as “stimulates gastro-intestinal motility”. The gastrointestinal dysmotility entry in the data set with mouse models of PD (several mouse models of PD) is on record as “reverse gastrointestinal dysmotility”. Besides, the clearance and excretion entry in data set [4] was “cleared by the liver and excreted as the intact molecule”. Besides, the “effect on IPANs” value in data set [5] was “excitation of IPANs”. Besides, the muscle paralysis result in the data set with C. elegans model of PD was “complete reversal of muscle paralysis”.
